This is an account of results in paper PMC3691140, “FGT-1 Is a Mammalian GLUT2-Like Facilitative Glucose Transporter in Caenorhabditis elegans Whose Malfunction Induces Fat Accumulation in Intestinal Cells” (PLoS ONE, 2013).

The target in the first test is T1, hGLUT1 (Homo sapiens, UniProt P11166).
T1 construct: gene SLC2A1; pSP64T-hGLUT1, cRNA-injected Xenopus laevis oocytes
T1 sequence (P11166 1-492): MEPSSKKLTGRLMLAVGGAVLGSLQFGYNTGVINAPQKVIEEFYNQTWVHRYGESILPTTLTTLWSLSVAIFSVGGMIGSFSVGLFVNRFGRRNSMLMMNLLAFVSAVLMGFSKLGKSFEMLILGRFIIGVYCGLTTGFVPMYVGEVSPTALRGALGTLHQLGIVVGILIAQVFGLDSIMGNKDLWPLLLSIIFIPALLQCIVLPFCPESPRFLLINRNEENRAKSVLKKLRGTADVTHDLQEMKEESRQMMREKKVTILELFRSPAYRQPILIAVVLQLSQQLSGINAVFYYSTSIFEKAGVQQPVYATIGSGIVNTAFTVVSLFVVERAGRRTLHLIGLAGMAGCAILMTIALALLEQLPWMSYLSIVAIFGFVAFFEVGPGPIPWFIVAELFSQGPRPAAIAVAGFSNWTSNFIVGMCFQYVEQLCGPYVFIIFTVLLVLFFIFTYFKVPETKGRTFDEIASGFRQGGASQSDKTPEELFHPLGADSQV
As to the kind of experiment: 3H-2-DG uptake in cRNA-injected Xenopus oocytes. The class given is cell-based. The note with it: 10 mM 2-DG, 15 min, pH 7.6; positive control; labelled compound as tracer.
For `OC[C@H]1OC(O)C[C@@H](O)[C@@H]1O` (stereo partly drawn) [2-deoxy-D-glucose], the “3H-2-DG uptake in cRNA-injected Xenopus oocytes” value was “The hGLUT1 cRNA-injected oocytes were used as a positive control”.

A further test concerns the target T2, FGT-1 (Caenorhabditis elegans, UniProt O44827).
T2 construct: gene fdgt-1; full-length fgt-1a cDNA in pSP64T, untagged, cRNA-injected Xenopus laevis oocytes
T2 sequence (O44827 1-492 isoform O44827-2): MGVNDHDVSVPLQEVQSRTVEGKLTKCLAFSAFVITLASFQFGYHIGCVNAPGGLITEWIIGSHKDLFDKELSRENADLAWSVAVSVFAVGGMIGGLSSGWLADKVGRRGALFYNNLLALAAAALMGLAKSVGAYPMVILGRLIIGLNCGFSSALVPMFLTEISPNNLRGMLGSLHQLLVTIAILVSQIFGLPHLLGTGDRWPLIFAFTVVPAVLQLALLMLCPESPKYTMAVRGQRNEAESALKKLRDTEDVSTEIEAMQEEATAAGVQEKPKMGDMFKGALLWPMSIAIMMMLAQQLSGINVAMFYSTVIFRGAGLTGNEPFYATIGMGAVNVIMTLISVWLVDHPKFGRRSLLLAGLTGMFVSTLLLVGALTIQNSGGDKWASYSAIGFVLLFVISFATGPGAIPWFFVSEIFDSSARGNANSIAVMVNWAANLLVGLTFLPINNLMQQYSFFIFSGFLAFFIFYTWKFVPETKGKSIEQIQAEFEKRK
As to the kind of experiment: inhibition of 3H-2-DG uptake in Xenopus oocytes. Format: cell-based. The note with it: read-out: % inhibition at 30 mM.
Regarding `CO[C@H]1[C@H](O)[C@@H](CO)OC(O)[C@@H]1O` (stereo partly drawn) [3-O-methylglucose], the inhibition (as a rule, the change of the read-out against control, counted positive when it falls) at 30000 µM came out at 77%.

As for `OCC1(O)OC[C@@H](O)[C@@H](O)[C@@H]1O` (stereo partly drawn) [D-fructose], the inhibition at 30000 µM was 42%.

As to `OC[C@H]1OC(O)[C@H](O)[C@@H](O)[C@H]1O` (stereo partly drawn) [D-galactose], the inhibition at 30000 µM stood at 33%.

Regarding `OC[C@H]1OC(O)[C@H](O)[C@@H](O)[C@@H]1O` (stereo partly drawn) [D-glucose], the inhibition at 30000 µM stood at 79%.

Regarding `OC[C@H]1OC(O)[C@@H](O)[C@@H](O)[C@@H]1O` (stereo partly drawn) [D-mannose], the inhibition at 30000 µM came out at 79%.
